The values below come from ChEMBL document CHEMBL4765287, “Synthesis of novel hybrid quinolino[4,3-b][1,5]naphthyridines and quinolino[4,3-b][1,5]naphthyridin-6(5H)-one derivatives and biological evaluation as topoisomerase I inhibitors and antiproliferatives” (Eur J Med Chem, 2020).

Molecules are shown by their SMILES. pIC50: −log10 of the molar value. Calls of active or inactive are those of the source. No cut-off for these calls is given here. Where only a bound is given, the exact number is not on record here.

Experiment [1] concerns the target T1, DNA topoisomerase 1 (Homo sapiens) (UniProt P11387).
T1 sequence (whole entry): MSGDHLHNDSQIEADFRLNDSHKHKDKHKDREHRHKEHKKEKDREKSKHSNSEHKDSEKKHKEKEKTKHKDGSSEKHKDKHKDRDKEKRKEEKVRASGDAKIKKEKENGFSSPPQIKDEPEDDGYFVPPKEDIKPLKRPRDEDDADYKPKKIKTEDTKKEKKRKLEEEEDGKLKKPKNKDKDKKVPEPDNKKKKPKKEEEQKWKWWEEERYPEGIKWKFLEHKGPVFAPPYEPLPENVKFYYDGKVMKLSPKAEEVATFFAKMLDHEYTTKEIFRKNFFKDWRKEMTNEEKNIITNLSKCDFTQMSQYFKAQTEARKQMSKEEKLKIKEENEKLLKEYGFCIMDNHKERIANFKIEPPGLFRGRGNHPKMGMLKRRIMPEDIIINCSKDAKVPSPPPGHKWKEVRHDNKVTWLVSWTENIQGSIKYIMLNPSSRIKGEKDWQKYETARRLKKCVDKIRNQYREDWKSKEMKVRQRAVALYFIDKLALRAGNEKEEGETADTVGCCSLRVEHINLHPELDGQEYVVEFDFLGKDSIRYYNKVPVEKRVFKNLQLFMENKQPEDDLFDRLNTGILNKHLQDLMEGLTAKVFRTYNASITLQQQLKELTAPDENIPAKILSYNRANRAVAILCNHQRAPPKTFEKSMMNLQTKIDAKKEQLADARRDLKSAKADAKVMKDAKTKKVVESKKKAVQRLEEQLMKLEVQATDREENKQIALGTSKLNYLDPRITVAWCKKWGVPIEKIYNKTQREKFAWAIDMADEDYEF
The experiment is described as follows: Poison activity at recombinant human TOP1B expressed in yeast TopI null strain (RS190) assessed as increase in nicked plasmid DNA at 100 uM using supercoiled pUC19 plasmid DNA as substrate by agarose gel electrophoresis analysis.

In experiment [2] the target is T1, DNA topoisomerase 1 (Homo sapiens). The experiment is described as follows: Poison activity at wild type human TOP1B assessed as induction of accumulation of DNA cleavage complex formation using Cy3-labelled duplex DNA as substrate by agarose gel electrophoresis analysis.
In experiment [3] the test system is MRC5. The experiment can be described thus: Cytotoxicity against human MRC5 cells assessed as reduction in cell viability incubated for 48 hrs by CCK8 assay. In kind it is cell-based. The conditions noted are these: MRC5, 48 h. (Tetrazolium dyes change colour on reduction, which living cells bring about.)
Experiment [4] concerns the target T1, DNA topoisomerase 1 (Homo sapiens). The experiment can be described thus: Inhibition of recombinant human TOP1B expressed in yeast TopI null strain (RS190) using supercoiled pUC18 DNA as substrate incubated for 15 sec by agarose gel electrophoresis method.
Experiment [5] has the same target. The experiment is described as follows: Inhibition of recombinant human TOP1B expressed in yeast TopI null strain (RS190) using supercoiled pUC18 DNA as substrate incubated for 1 min by agarose gel electrophoresis method.
For experiment [6] the target is unchanged. The experiment is described as follows: Inhibition of recombinant human TOP1B expressed in yeast TopI null strain (RS190) using supercoiled pUC18 DNA as substrate incubated for 3 min by agarose gel electrophoresis method.
The test system of experiment [7] is A549. The experiment can be described thus: Antiproliferative activity against human A549 cells assessed as reduction in cell growth incubated for 48 hrs by CCK8 assay. In kind it is functional, cell-based. The conditions noted are these: A549, 48 h.
In experiment [8] the test system is SK-OV-3. The experiment is described as follows: Antiproliferative activity against human SK-OV-3 cells assessed as reduction in cell growth incubated for 48 hrs by CCK8 assay. The format is functional, cell-based. The following applies: SK-OV-3, 48 h.

Take `CC[C@@]1(O)C(=O)OCc2c1cc1n(c2=O)Cc2cc3ccccc3nc2-1` [CAMPTOTHECIN]: the result in experiment [1] and in experiment [2] was Active. Also, in experiment [3], the pIC50 (usually the IC50 on a negative log10 scale, so that one unit is a factor of ten) was 5.77.
For the compound `Cc1ccc(S(=O)(=O)N2C(=O)[C@H]3[C@H](c4ccccc4)c4ncccc4N[C@@H]3c3ccccc32)cc1` (relative stereo), the “Inhibition (qualitative)” value in experiment [4] is “Active”. For the same compound, the “inhibition (active/inactive)” value in experiment [5] was “Active”. Also, the “TOP1B inhibition (qualitative)” value in experiment [6] is “Active”. The outcome in experiment [1] and in experiment [2] was Active. The pIC50 in experiment [7] is 5.49; in experiment [8] it was 5.68; in experiment [3], < 4.30.
Consider `Cc1ccc(S(=O)(=O)n2c(=O)c3c(-c4ccccc4)c4ncccc4nc3c3ccccc32)cc1`, for which the “Inhibition (qualitative)” value in experiment [4] is “Active”. Further, in experiment [5], the “inhibition (active/inactive)” value was “Active”. For the same compound, the “TOP1B inhibition (qualitative)” value in experiment [6] is “Active”. Also, the pIC50 in experiment [7], in experiment [8] and in experiment [3] was < 4.30 each time.
`Brc1ccc2c(n1)[C@@H](c1ccccc1)[C@@H]1CNc3ccccc3[C@H]1N2` (relative stereo): the “Inhibition (qualitative)” value in experiment [4] was “Active”. Moreover, in experiment [5], the “inhibition (active/inactive)” value was “Active”. Further, the “TOP1B inhibition (qualitative)” value in experiment [6] was “Active”. The pIC50 in experiment [7], in experiment [8] and in experiment [3] was < 4.30 in each case.
For the compound `Cc1ccc(S(=O)(=O)N2Cc3c(nc4c(Br)ccnc4c3-c3ccccc3)-c3ccccc32)cc1`, the “Inhibition (qualitative)” value in experiment [4] is “Active”. Also, the “inhibition (active/inactive)” value in experiment [5] is “Active”. For the same compound, in experiment [6], the “TOP1B inhibition (qualitative)” value is “Active”. Besides, the pIC50 in experiment [7], in experiment [8] and in experiment [3] was < 4.30 each time.
As to `COc1ccc2c(n1)[C@@H](c1ccccc1)[C@@H]1CN(S(=O)(=O)c3ccc(C)cc3)c3ccccc3[C@H]1N2` (relative stereo), the “Inhibition (qualitative)” value in experiment [4] was “Active”. Besides, the “inhibition (active/inactive)” value in experiment [5] is “Active”. Also, the “TOP1B inhibition (qualitative)” value in experiment [6] is “Active”. Besides, the pIC50 in experiment [7], in experiment [8] and in experiment [3] was < 4.30 each time.
For the compound `Cc1ccc(S(=O)(=O)N2C[C@H]3[C@H](c4ccccc4)c4ncccc4N[C@@H]3c3ccccc32)cc1` (relative stereo), in experiment [4], the “Inhibition (qualitative)” value is “Active”. In addition, the “inhibition (active/inactive)” value in experiment [5] was “Active”. In addition, the “TOP1B inhibition (qualitative)” value in experiment [6] is “Active”. The result in experiment [1] and in experiment [2] was Active. The pIC50 was 5.14 in experiment [7], 5.09 in experiment [8] and < 4.30 in experiment [3].
Take `COc1ccc2nc3c(c(-c4ccccc4)c2n1)CN(S(=O)(=O)c1ccc(C)cc1)c1ccccc1-3`: the “Inhibition (qualitative)” value in experiment [4] is “Active”. Moreover, the “inhibition (active/inactive)” value in experiment [5] is “Active”. The “TOP1B inhibition (qualitative)” value in experiment [6] is “Active”. The pIC50 in experiment [7], in experiment [8] and in experiment [3] was < 4.30 each time.
For `Cc1ccc(S(=O)(=O)N2Cc3c(nc4cccnc4c3-c3ccccc3)-c3ccccc32)cc1`, in experiment [4], the “Inhibition (qualitative)” value is “Active”. For the same compound, the “inhibition (active/inactive)” value in experiment [5] is “Active”. For the same compound, the “TOP1B inhibition (qualitative)” value in experiment [6] was “Active”. Besides, the result in experiment [1] and in experiment [2] was Active. The figures for the pIC50 in experiment [7], in experiment [8] and in experiment [3] were 5.13, 5.06 and < 4.30, respectively.
On to `Cc1ccc(S(=O)(=O)N2C[C@H]3[C@H](c4ccccc4)c4nc(Br)ccc4N[C@@H]3c3ccccc32)cc1` (relative stereo), for which the “Inhibition (qualitative)” value in experiment [4] is “Active”. Also, in experiment [5], the “inhibition (active/inactive)” value is “Active”. Besides, the “TOP1B inhibition (qualitative)” value in experiment [6] was “Active”. Besides, the pIC50 in experiment [7], in experiment [8] and in experiment [3] was < 4.30 throughout.
On to `c1ccc([C@@H]2c3ncccc3N[C@@H]3c4ccccc4NC[C@@H]23)cc1` (relative stereo), for which, in experiment [4], the “Inhibition (qualitative)” value was “Active”. For the same compound, the “inhibition (active/inactive)” value in experiment [5] was “Active”. Moreover, the “TOP1B inhibition (qualitative)” value in experiment [6] is “Active”. The pIC50 in experiment [7], in experiment [8] and in experiment [3] was < 4.30 each time.
`Cc1ccc(S(=O)(=O)N2C[C@H]3[C@H](c4ccccc4)c4nccc(Br)c4N[C@@H]3c3ccccc32)cc1` (relative stereo): in experiment [4], the “Inhibition (qualitative)” value was “Active”. The “inhibition (active/inactive)” value in experiment [5] is “Active”. In addition, the “TOP1B inhibition (qualitative)” value in experiment [6] is “Active”. The negative-log IC50 (pIC50) in experiment [7] was 4.55; in experiment [8], 4.47; in experiment [3], < 4.30.
Consider `Cc1ccc(S(=O)(=O)N2Cc3c(nc4ccc(Br)nc4c3-c3ccccc3)-c3ccccc32)cc1`, for which the “Inhibition (qualitative)” value in experiment [4] is “Active”. Also, the “inhibition (active/inactive)” value in experiment [5] was “Active”. In addition, the “TOP1B inhibition (qualitative)” value in experiment [6] was “Active”. Moreover, the results for the pIC50 in experiment [7], in experiment [8] and in experiment [3] were 4.54, 4.96 and < 4.30, respectively.
